Reference: patent publication US20150191459A1, “CATHEPSIN INHIBITORS” (ViroBay, Inc., priority 2013, published 2015)

biological target: Human cathepsin B (Homo sapiens, UniProt P07858); assay: Cathepsin B Assay; format: biochemical; details: apparent inhibition constant; Boc-Leu-Arg-Arg-AMC substrate; pH 6; 30 minutes pre-incubation; read-out: cat B Ki
Procedure: Solutions of test compounds in varying concentrations were prepared in 10 μL of dimethyl sulfoxide (DMSO) and then diluted into assay buffer (40 μL, comprising: N,N-bis(2-hydroxyethyl)-2-aminoethanesulfonic acid (BES), 50 mM (pH 6); polyoxyethylenesorbitan monolaurate, 0.05%; and dithiothreitol (DTT), 2.5 mM). Human cathepsin B (0.025 pMoles in 25 μL of assay buffer) was added to the dilutions. The assay solutions were mixed for 5-10 seconds on a shaker plate, covered and incubated for 30 minutes at ambient temperature. Boc-Leu-Arg-Arg-AMC (20 μM in 1% DMSO) was added to the assay solutions and hydrolysis was followed spectrophotometrically at (λ 460 nm) for 5 minutes. Apparent inhibition constants (Ki) were calculated from the enzyme progress curves using standard mathematical models.

| Ki | Structure (SMILES) |
| --- | --- |
| 45 nM | N#CC1(NC(=O)[C@H](Cc2cc(Cl)c(O)c(Cl)c2)N[C@@H](c2ccc(Br)cc2)C(F)(F)F)CC1 [N-(1-Cyanocyclopropyl)-2S-[2,2,2-trifluoro-1S-(4-bromophenyl)-ethylamino]-3-(3,5-dichloro-4-hydroxyphenyl)-propanamide] |
| 13 nM | N#CC1(NC(=O)[C@H](Cc2cc(I)c(O)c(I)c2)N[C@@H](c2ccc(Br)cc2)C(F)(F)F)CC1 [N-(1-Cyanocyclopropyl)-2S-[2,2,2-trifluoro-1S-(4-bromophenyl)-ethylamino]-3-(3,5-diiodo-4-hydroxyphenyl)-propanamide] |
| 1.16 nM | CC[C@H](NC(=O)[C@H](Cc1cc(I)c(O)c(I)c1)N[C@@H](c1ccc(F)cc1)C(F)(F)F)C(=O)C(=O)NC1CC1 [N-cyclopropyl-3S-{3-[3,5-diiodo-4-hydroxyphenyl)-2S-(2,2,2-trifluoro)-1S-(4-fluorophenyl)ethylamino]propionylamino}-2-oxopentanamide] |

Second part, the molecule before the results:

| Structure (SMILES) | Ki |
| --- | --- |
| N#CC1(NC(=O)[C@H](Cc2cc(Cl)c(O)c(Cl)c2)N[C@@H](c2ccc(F)cc2)C(F)(F)F)CC1 [N-(1-Cyanocyclopropyl)-2S-[2,2,2-trifluoro-1S-(4-fluorophenyl)-ethylamino]-3-(3,5-dichloro-4-hydroxyphenyl)-propanamide] | 130 nM |
| N#CCNC(=O)[C@H](Cc1cc(I)c(O)c(I)c1)N[C@@H](c1ccc(Br)cc1)C(F)(F)F [N-Cyanomethyl-2S-[2,2,2-trifluoro-1S-(4-bromophenyl)-ethylamino]-3-(3,5-diiodo-4-hydroxyphenyl)-propanamide] | 3.5 nM |
| CC[C@H](NC(=O)[C@H](Cc1cc(Cl)c(O)c(Cl)c1)N[C@@H](c1ccc(F)cc1)C(F)(F)F)C(=O)C(=O)NC1CC1 [N-Cyclopropyl-3S-{3-[3,5-dichloro-4-hydroxyphenyl)-2S-(2,2,2-trifluoro)-1S-(4-fluorophenyl)ethylamino]propionylamino}-2-oxopentanamide] | ≤ 1 nM |
| CC[C@H](NC(=O)[C@H](Cc1cc(Cl)c(O)c(Cl)c1)N[C@@H](c1ccc(Br)cc1)C(F)(F)F)C(=O)C(=O)NC1CC1 [N-cyclopropyl-3S-{3-[3,5-dichloro-4-hydroxyphenyl)-2S-(2,2,2-trifluoro)-1S-(4-bromophenyl)ethylamino]propionylamino}-2-oxopentanamide] | 1.53 nM |
| CC[C@H](NC(=O)[C@H](Cc1cc(I)c(O)c(I)c1)N[C@@H](c1ccc(Br)cc1)C(F)(F)F)C(=O)C(=O)NC1CC1 [N-cyclopropyl-3S-{3-[3,5-diiodo-4-hydroxyphenyl)-2S-(2,2,2-trifluoro)-1S-(4-bromophenyl)ethylamino]propionylamino}-2-oxopentanamide] | 1.28 nM |
